The results in this text go back to patent publication US8119633B2, “Substituted sulfonamide compounds” (Gruenenthal GmbH, priority 2007, dated 2012).

Experiment [1] addresses T1, human bradykinin receptor 1 (B1R) (Homo sapiens, UniProt P46663).
T1 construct: expressed in transfected cells; host or cells: CHO K1 cells
T1 sequence (P46663 1-353): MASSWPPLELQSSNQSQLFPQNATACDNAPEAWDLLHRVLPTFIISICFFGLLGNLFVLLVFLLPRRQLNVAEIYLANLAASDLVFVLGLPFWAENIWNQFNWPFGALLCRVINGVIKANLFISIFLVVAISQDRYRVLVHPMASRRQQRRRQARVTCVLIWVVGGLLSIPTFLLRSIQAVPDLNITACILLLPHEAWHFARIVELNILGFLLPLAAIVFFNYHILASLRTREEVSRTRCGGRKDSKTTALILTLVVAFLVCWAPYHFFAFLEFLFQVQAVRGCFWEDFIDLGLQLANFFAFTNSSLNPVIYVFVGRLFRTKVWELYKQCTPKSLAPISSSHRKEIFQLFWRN
In words: Functional study on the bradykinin receptor 1 (B1R), human: FLIPR Ca2+ influx assay. Type of experiment: cell-based. The settings on record: test substance 10 μM; CHO K1 cells transfected with human B1R; Lys-Des-Arg9-bradykinin at EC80; Ca2+ influx (Fluo-4, FLIPR); read-out: B1R antagonism, human [10 μM] % inhibition. The gist of the method:
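CHO K1 cells stably expressing human B1R were loaded with Fluo-4, and Ca2+ fluorescence was read on FLIPR (ex 488/em 540 nm). Compound was added first (10 μM for % activation against Lys-Des-Arg9-bradykinin ≥0.5 nM). After 10-20 min, Lys-Des-Arg9-bradykinin was added at EC80 for % inhibition; IC50 came from concentration series, n=2-3, N≥2.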

For experiment [2], the target named is T2, bradykinin receptor 1 (B1R) of the rat (Rattus norvegicus, UniProt P97583).
T2 construct: expressed in transfected cells; host or cells: CHO K1 cells
T2 sequence (P97583 1-337): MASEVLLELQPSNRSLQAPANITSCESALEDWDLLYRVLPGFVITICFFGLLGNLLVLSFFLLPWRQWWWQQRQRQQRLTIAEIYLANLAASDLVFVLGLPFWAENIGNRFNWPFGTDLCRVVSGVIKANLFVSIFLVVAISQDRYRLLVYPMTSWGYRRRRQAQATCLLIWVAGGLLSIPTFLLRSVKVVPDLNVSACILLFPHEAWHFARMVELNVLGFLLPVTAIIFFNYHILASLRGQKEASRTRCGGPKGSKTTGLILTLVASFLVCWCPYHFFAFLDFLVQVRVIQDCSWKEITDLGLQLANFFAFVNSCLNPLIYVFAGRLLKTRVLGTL
Description: Functional study on the bradykinin receptor 1 (B1R), rat: FLIPR Ca2+ influx assay. Format: cell-based. The conditions noted are these: test substance 10 μM; CHO K1 cells transfected with rat B1R; Des-Arg9-bradykinin at EC80; Ca2+ influx (Fluo-4, FLIPR); read-out: B1R antagonism, rat [10 μM] % inhibition. In short, it runs like this: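 CHO K1 cells stably expressing rat B1R, Fluo-4-loaded, read on FLIPR (ex 488/em 540 nm, peak fluorescence). Test substances added first (agonism vs 10 μM Des-Arg9-bradykinin), then after 10-20 min Des-Arg9-bradykinin at EC80; % inhibition and IC50 from concentration series, n=2-3, N≥2.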

The next experiment has as its target T3, human μ-opiate receptor (Homo sapiens, UniProt P35372).
T3 construct: purchased PerkinElmer Life Sciences, Zaventem, Belgium RB-HOM; host or cells: CHO-K1 cells (membrane preparation)
In words: Affinity for the human μ-opiate receptor ([3H]-naloxone displacement, SPA). The settings on record: test substance 1 μmol/l, inhibition of specific [3H]-naloxone binding, CHO-K1 receptor membrane preparation; for inhibition at 1 µM: read-out: μ-Opioid receptor [1 μM] % inhibition. As to the method:
Studies of the Effectiveness of the Compounds According to the Invention Method for determining the affinity for the human μ-opiate receptor
The receptor affinity for the human μ-opiate receptor is determined in a homogeneous batch on microtitre plates. To this end, serial dilutions of the substances to be tested are incubated for 90 minutes at room temperature with a receptor membrane preparation (15-40 μg of protein/250 μl of incubation batch) of CHO-K1 cells, which express the human μ-opiate receptor (RB-HOM receptor membrane preparation from PerkinElmer Life Sciences, Zaventem, Belgium), in the presence of 1 nmol/l of the radioactive ligand [^3H]-naloxone (NET719, PerkinElmer Life Sciences, Zaventem, Belgium) and 1 mg of WGA-SPA beads (wheatgerm agglutinin SPA beads from Amersham/Pharmacia, Freiburg, Germany) in a total volume of 250 μl. The incubation buffer used is 50 mmol/l of Tris-HCl supplemented with 0.06 wt. % bovine serum albumin. In order to determine non-specific binding, 100 μmol/l of naloxone is additionally added. When the ninety-minute incubation time has ended, the microtitre plates are centrifuged off for 20 minutes at 1000 g and the radioactivity is measured in a β-counter (Microbeta-Trilux, PerkinElmer Wallac, Freiburg, Germany). The percentage displacement of the radioactive ligand from its binding to the human μ-opiate receptor at a concentration of the test substances of 1 μmol/l is determined and stated as the percentage inhibition of specific binding. On the basis of the percentage displacement by different concentrations of the test substances, IC50 inhibitory concentrations, which effect 50% displacement of the radioactive ligand, are calculated. Ki values for the test substances are obtained by conversion by means of the Cheng-Prusoff equation.

Usually inhibition stands for the drop in the measured response relative to a control, in per cent.

T3 sequence (P35372 whole entry): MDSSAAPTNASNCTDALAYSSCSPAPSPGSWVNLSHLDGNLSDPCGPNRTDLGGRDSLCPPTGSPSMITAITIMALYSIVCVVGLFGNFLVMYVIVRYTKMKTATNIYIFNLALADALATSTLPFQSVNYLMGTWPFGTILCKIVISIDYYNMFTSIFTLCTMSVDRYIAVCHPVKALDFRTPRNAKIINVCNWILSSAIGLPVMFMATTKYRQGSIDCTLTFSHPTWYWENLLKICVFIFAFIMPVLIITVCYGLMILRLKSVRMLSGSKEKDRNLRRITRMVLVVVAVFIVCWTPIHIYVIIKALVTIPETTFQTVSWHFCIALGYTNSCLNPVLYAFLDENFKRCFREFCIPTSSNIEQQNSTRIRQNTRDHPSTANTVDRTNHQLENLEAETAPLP

Take `O=C1Nc2ccccc2N(S(=O)(=O)c2ccc(Cl)c(Cl)c2)C1CC(=O)N1CCC(C(Cc2ccccc2)N2CCOCC2)CC1` (stereo not shown) [Example 72, 4-(3,4-dichlorophenylsulfonyl)-3-(2-(4-(1-morpholino-2-phenylethyl)piperidin-1-yl)-2-oxoethyl)-3,4-dihydroquinoxalin-2(1H)-one]: the inhibition at 10 µM was 102% in experiment [1] and 30% in experiment [2]. In addition, the inhibition at 1 µM on human μ-opiate receptor is 26%.
Consider `O=C(CC1C(=O)NCCN1S(=O)(=O)c1ccc(Cl)cc1Cl)NCC1CCC(C(CCc2ccccc2)N2CCOCC2)CC1` (stereo not shown) [Example 56, 2-[1-(2,4-dichloro-benzenesulfonyl)-3-oxo-piperazin-2-yl]-N-[4-(1-morpholin-4-yl-3-phenyl-propyl)-cyclohexylmethyl]-acetamide], for which the results for the inhibition at 10 µM in experiment [1] and in experiment [2] were 104% and 20%, respectively. Moreover, the inhibition at 1 µM at human μ-opiate receptor came to 11%.
On to `O=C(CC1CCCCN1S(=O)(=O)c1ccc(Cl)c(Cl)c1)NCC1CCC(C(c2ccccc2)N2CCOCC2)CC1` (stereo not shown) [Example 82, 2-[1-(3,4-dichloro-benzenesulfonyl)-piperidin-2-yl]-N-[4-(morpholin-4-yl-phenylmethyl)-cyclohexylmethyl]-acetamide], for which the inhibition at 10 µM in experiment [1] is 23.5%; in experiment [2], 7%. Also, the inhibition at 1 µM on human μ-opiate receptor was determined as 23%.
Taken in the same sequence, the figures for `CN1CCN(C(c2ccc(F)cc2)C2CCN(C(=O)CC3CCCCN3S(=O)(=O)c3cccc(C(F)(F)F)c3)CC2)CC1` (stereo not shown) [Example 109, 1-(4-((4-fluorophenyl)(4-methylpiperazin-1-yl)methyl)piperidin-1-yl)-2-(1-(3-(trifluoromethyl)phenylsulfonyl)piperidin-2-yl)ethanone] were 102%, 99% and 5%.
Taken in the same sequence, the figures for `CN1CCN(C(Cc2ccccc2)C2CCN(C(=O)CC(NS(=O)(=O)c3ccc4ccccc4c3)c3ccccc3)CC2)CC1` (stereo not shown) [Example 116, N-(3-(4-(1-(4-methylpiperazin-1-yl)-2-phenylethyl)piperidin-1-yl)-3-oxo-1-phenylpropyl)naphthalene-2-sulfonamide] were 102%, 93% and 7%.
The corresponding values for `O=C(CC1CCCN1S(=O)(=O)c1ccc(Cl)c(Cl)c1)NC1CCC(C(CCc2ccccc2)N2CCOCC2)CC1` (stereo not shown) [Example 78, 2-(1-(3,4-dichlorophenylsulfonyl)pyrrolidin-2-yl)-N-(4-(1-morpholino-3-phenylpropyl)cyclohexyl)acetamide] are 78.3%, 10% and 18%.
As to `O=C(CC1C(=O)Nc2ccccc2N1S(=O)(=O)c1ccc(Cl)c(Cl)c1)NCC1CCC(C(CCc2ccccc2)N2CCOCC2)CC1` (stereo not shown) [Example 65, 2-[1-(3,4-dichloro-benzenesulfonyl)-3-oxo-1,2,3,4-tetrahydro-quinoxalin-2-yl]-N-[4-(1-morpholin-4-yl-3-phenyl-propyl)-cyclohexylmethyl]-acetamide], the inhibition at 10 µM in experiment [1] was found to be 103%; in experiment [2], 24%. Moreover, the inhibition at 1 µM at human μ-opiate receptor is 9%.
For “N-(3-(4-((4-fluorophenyl)(4-methylpiperazin-1-yl)methyl)piperidin-1-yl)-3-oxo-1-phenylpropyl)naphthalene-2-sulfonamide [Example 117]”, the “μ-Opioid receptor [1 μM] % inhibition” value on human μ-opiate receptor worked out at 47%.
On to `Cc1cc(S(=O)(=O)N2CCCCC2CCC(=O)N2CCC(C(Cc3ccccc3)N3CCN(C)CC3)CC2)c(C)cc1Cl` (stereo not shown) [Example 118, 3-(1-(4-chloro-2,5-dimethylphenylsulfonyl)piperidin-2-yl)-1-(4-(1-(4-methyl-piperazin-1-yl)-2-phenylethyl)piperidin-1-yl)propan-1-one], for which the inhibition at 10 µM in experiment [1] stood at 101%; in experiment [2], 93%. For the same compound, on human μ-opiate receptor, the inhibition at 1 µM is 3%.
In the case of `CN1CCN(C(c2ccccc2)C2CCC(NC(=O)CC3C(=O)NCCN3S(=O)(=O)c3ccc(Cl)cc3Cl)CC2)CC1` (stereo not shown) [Example 61, 2-[1-(2,4-dichloro-benzenesulfonyl)-3-oxo-piperazin-2-yl]-N-{4-[(4-methyl-piperazin-1-yl)-phenyl-methyl]-cyclohexyl}-acetamide], the inhibition at 10 µM in experiment [1] is 104%; in experiment [2] it was 39%. The inhibition at 1 µM at human μ-opiate receptor is 34%.
Taken in the same sequence, the figures for `Cc1cc(S(=O)(=O)N2CCCCC2CCC(=O)N2CCC(C(c3ccc(F)cc3)N3CCN(C)CC3)CC2)c(C)cc1Cl` (stereo not shown) [Example 121, 3-(1-(4-chloro-2,5-dimethylphenylsulfonyl)piperidin-2-yl)-1-(4-((4-fluorophenyl)(4-methylpiperazin-1-yl)methyl)piperidin-1-yl)propan-1-one] were 105%, 58% and 6%.
Taken in the same sequence, the figures for `CN1CCN(C(c2ccccc2)C2CCC(NC(=O)CC3CCCN3S(=O)(=O)c3ccc(Cl)c(Cl)c3)CC2)CC1` (stereo not shown) [Example 79, 2-[1-(3,4-dichloro-benzenesulfonyl)-pyrrolidin-2-yl]-N-{4-[(4-methyl-piperazin-1-yl)-phenyl-methyl]-cyclohexyl}-acetamide] were 96.8%, 33% and 47%.
Consider `O=C1NCCN(S(=O)(=O)c2ccc(Cl)cc2Cl)C1CC(=O)N1CCC(C(c2ccccc2)N2CCOCC2)CC1` (stereo not shown) [Example 62, 4-(2,4-dichloro-benzenesulfonyl)-3-{2-[4-(morpholin-4-yl-phenyl-methyl)piperidin-1-yl]-2-oxo-ethyl}-piperazin-2-one], for which, in experiment [2], the inhibition at 10 µM is 27%. Further, at human μ-opiate receptor, the inhibition at 1 µM worked out at 4%.
For `CN(C)C(c1ccc(F)cc1)C1CCC(NC(=O)c2ccccc2N(C)S(=O)(=O)c2ccc(Cl)c(Cl)c2)CC1` (stereo not shown) [Example 37, 2-[(3,4-dichloro-benzenesulfonyl)-methyl-amino]-N-{4-[dimethylamino-(4-fluoro-phenyl)-methyl]-cyclohexyl}-benzamide], the inhibition at 10 µM in experiment [1] amounted to 82.2%; in experiment [2] it was 64%.
On to `COc1ccc(S(=O)(=O)N2CCc3ccccc3C2CC(=O)NCC2CCC(C(CCc3ccccc3)N(C)C)CC2)cc1` (stereo not shown) [Example 18, N-[4-(1-dimethylamino-3-phenyl-propyl)-cyclohexylmethyl]-2-[2-(4-methoxybenzenesulfonyl)-1,2,3,4-tetrahydro-isoquinolin-1-yl]-acetamide], for which the inhibition at 10 µM in experiment [1] came to 58.8%; in experiment [2], 73%.
